Results on 2 compounds are retold here after PMC7876106 (Scientific Reports, 2021).

Structures are written as SMILES.

Test [1] concerns TRF2 interaction with TERRA. Description: RNA-ChIP assay of TRF2-TERRA interaction in LOX cells. It counts as cell-based. As to conditions: Homo sapiens, 24 h, read-out: inhibition of TRF2 interaction with TERRA relative to PP control. How it is done:
Mei et al, 2020 TERRA Requires TRF2 GAR Domain […]
blot procedures. Northern blot was performed as previously described with some modifications […]
2. Briefly, 6 µg RNA was denatured in NorthernMax formaldehyde loading dye (Ambion) for 15 […]
min at 65 °C and separated by 1.2% agarose formamide gel in 1X Mops buffer (Ambion) at […]
5V/cm for 2-3 hrs. RNA samples were transferred to GeneScreen Plus blotting membranes […]
(Perkin-Elmer) with 10X SSC and UV cross-linked onto membranes at 125 mJ in UV […]
Stratalinker 2400 (Stratagene). The hybridization was performed using a 32P-labeled TERRA […]
probe in Church buffer (0.5 N Na-phosphate, pH 7.2, 7% SDS, 1 mM EDTA, 1% BSA) for […]
overnight at 50 °C. The blot was washed twice in 0.2 N Na-phosphate, 2% SDS, and 1 mM […]
EDTA at room temperature and once in 0.1 N Na-phosphate, 2% SDS, and 1 mM EDTA at […]
50 °C. Images were collected by phosphor- imager (Amersham Biosciences), and were […]
visualized with a Typhoon 9410 Imager (GE Healthcare) and quantified with ImageQuant TL […]
Genomic DNA was isolated from cells using a genomic DNA purification kit (Promega) and digested with AluI and MboI. Digested genomic DNA was purified by phenol/choloroform extraction and quantified using a Qubit 4 Fluorometer (Thermal Scientific). […] The DNA was transferred to GeneScreen Plus blotting membranes (Perkin-Elmer) and analyzed by Southern blot. […]

The test system of test [2] is TERRA (HTRF assay) (RNA, G4) UUAGGGUUAGGGUUAGGGUUAGGG
The experiment in a line: HTRF, disruption of TRF2 peptide complex. The settings on record: TRF2 GAR peptide displaced. A general note: In TR-FRET formats the signal depends on donor and acceptor labels being close together.

In the next test the test system is TERRA. Description: CD spectroscopy of TERRA mixed with compound. As to conditions: 1:1 molar ratio, 150 mM KCl buffer. On the procedure:
All nucleic acids were dissolved in buffer containing 20 mM HEPES pH7.5, 150 mM salt (KCl or LiCl), 20% PEG8000 at the concentration of 10 μM for experiments. A J-815 spectrometer equipped with a PFD-425S Peltier cell holder was used to measure CD spectra at 4 °C between 200 and 340 nm to determine the secondary structure content of various oligo constructs. The molar ellipticity was calculated and the plot was made using Excel.

The test system of test [3] is TeloDNA (HTRF assay) (DNA, G4) TTAGGGTTAGGGTTAGGGTTAGGG
Description: HTRF, disruption of TRF2 peptide complex. As to conditions: TRF2 GAR peptide displaced.

Take `CCc1c(C)c2cc3nc(cc4nc(cc5c(CC)c(C)c(cc1[nH]2)n5C)C(C)=C4CCC(=O)O)C(CCC(=O)O)=C3C` [NMM, N-methyl mesoporphyrin IX]: the inhibition at 2 µM in test [1] is about 50%. In test [2], this compound had an IC50 of 1.7 ± 0.8 nM. The “alteration of CD spectrum of TERRA at major peak (~260 nm)” value with TERRA was “altered the CD spectrum of TERRA”.

In the case of `CN(C)c1ccc(Nc2c3ccc(NC(=O)CCN4CCCC4)cc3nc3cc(NC(=O)CCN4CCCC4)ccc23)cc1` [BRACO-19], the inhibition at 2 µM in test [1] is about 50%. For the same compound, in the test with TERRA, the “alteration of CD spectrum of TERRA at major peak (~260 nm)” value is “not BRACO-19 or PP altered the CD spectrum”. In test [3], this compound showed an IC50 of 7.00 ± 0.16 nM.

By inhibition is commonly meant the change of the read-out against control, counted positive when it falls. One may read the IC50 as the concentration needed to halve the response being measured. The low end stands for greater potency, the high end for weaker potency.
